Test results as given in ChEMBL document CHEMBL1201862, “PubChem BioAssay data set” (2004).
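These data come from cells grown in 96-well plates and exposed to compound for 48 hours at five concentrations. GI50: concentration for 50% inhibition of growth.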 Activity calls are given as the source filed them. Cut-off read from the data, not from the text of the source: active = GI50 up to about 1.1 µM and inactive = higher. Peptide text beside a SMILES is read from it. * marks the point of attachment. Boc = CC(C)(C)OC(=O)*; OtBu = CC(C)(C)O*

Columns and labels:
Assay in all cases: DTP human tumour cell line panel, 48 h
[1] = tested on: BT-549
[2] = tested on: DLD-1
[3] = tested on: DMS-114
[4] = tested on: DMS-273
[5] = tested on: KM-20L2
[6] = tested on: LXFL 529
[7] = tested on: XF498
[8] = tested on: HOP-18

Question: `CC(=O)OC1CCC2(C)C(CCC3C2CC(=O)C2(C)C3CC(N3CC3)C2C(C)=O)C1` (stereo not given) was tested. Which GI50 [1] did it give?
Answer: 17.4 µM (inactive)

Question: Which GI50 [1] does the source give for `c1ccc(CCN2CCCCCC2)nc1` here?
Answer: > 100 µM (inactive)

Question: Which results are given for `Cc1cc(C)nc(NS(=O)(=O)c2ccc(NC(=O)c3cccc4c(N)c5ccccc5nc34)cc2)n1`?
Answer: GI50 [2]: > 100 µM (inactive); GI50 [3]: > 100 µM (inactive); GI50 [4]: > 100 µM (inactive); GI50 [5]: 88.7 µM (inactive); GI50 [6]: > 100 µM (inactive); GI50 [7]: > 100 µM (inactive)

Question: How did the GI50 [1] turn out when `COc1cc2cc(C(=O)N3CC(COS(C)(=O)=O)c4c3cc([N+](=O)[O-])c3ccccc43)[nH]c2c(OC)c1OC` (stereo not given) was run?
Answer: > 31.6 µM (inactive)

Question: Which GI50 [1] does the source give for `O=C1/C(=C/c2cccc3ccccc23)CCc2ccc([N+](=O)[O-])cc21` here?
Answer: 16.1 µM (inactive)

Question: With `C(=C\c1cccs1)/c1cccc(/C=C/c2cccs2)n1` as the molecule, how does the GI50 [1] read?
Answer: 22 µM (inactive)

Question: How did the GI50 [1] turn out when `CC(C)Sc1nncc(/C(N)=N/O)n1` was run?
Answer: > 100 µM (inactive)

Question: `O=C(Nc1ccc(Cl)cc1Cl)C(=O)C(C(=O)c1ccc2ccccc2c1)C1OC(=O)c2ccccc21` (stereo not given) was tested. Which GI50 [2] did it give?
Answer: 10.7 µM (inactive)

Question: What about the GI50 [3] of the same molecule?
Answer: 11.1 µM (inactive)

Question: What about the GI50 [6] of the same molecule?
Answer: 3.33 µM (inactive)

Question: With `Cc1nn(C(=O)c2ccccc2O)c2c1C(c1ccc3ccccc3c1O)SC(=N)N2` (stereo not given) as the molecule, how does the GI50 [1] read?
Answer: > 10 µM (inactive)

Question: Which GI50 [1] does the source give for `CCc1ccc(CCC(=O)O)nc1` here?
Answer: > 100 µM (inactive)

Question: Which results are given for `COC1CC(C)C(OC)C2=CC(=O)C=C(NC(=O)/C(C)=C/C=C\C(C)C(OC(N)=O)/C(C)=C\C(C)C1OC)C2=O` (stereo not given)?
Answer: GI50 [2]: 0.804 µM (active); GI50 [3]: 0.403 µM (active); GI50 [4]: 0.239 µM (active); GI50 [8]: 0.179 µM (active); GI50 [5]: 0.202 µM (active); GI50 [6]: 0.191 µM (active); GI50 [7]: 0.681 µM (active)

Question: `CCOC(=O)/C(C(=O)Nc1cccc(Cl)c1)=C(/N)N1CCOCC1` was tested. Which GI50 [1] did it give?
Answer: > 100 µM (inactive)

Question: With `C=C1CC23CCC4C(C)(C(=O)O)CCCC4(C)C2CCC1C3` (stereo not given) as the molecule, how does the GI50 [1] read?
Answer: 26.3 µM (inactive)

Question: For `COc1cc(C=O)cc(/C=N/n2c3ccccc3c3ccccc32)c1O`, which GI50 [1] is on record?
Answer: 2.94 µM (inactive)

Question: For `C=C(C)CNC(=S)N(N)c1ccc2ccccc2c1`, which GI50 [1] is on record?
Answer: > 100 µM (inactive)

Question: For `Cn1cccc(C(=O)c2ccccc2)c1=O`, which GI50 [2] is on record?
Answer: > 100 µM (inactive)

Question: What about the GI50 [3] of the same molecule?
Answer: > 100 µM (inactive)

Question: And the GI50 [4]?
Answer: > 100 µM (inactive)

Question: What about the GI50 [5] of the same molecule?
Answer: > 100 µM (inactive)

Question: What about the GI50 [6] of the same molecule?
Answer: > 100 µM (inactive)

Question: What about the GI50 [7] of the same molecule?
Answer: > 100 µM (inactive)

Question: How did the GI50 [2] turn out when `Cc1c(/C=N/NC(=O)c2ccc(Cl)cc2)c(=O)n(-c2ccccc2)n1C` was run?
Answer: > 100 µM (inactive)

Question: What about the GI50 [3] of the same molecule?
Answer: > 100 µM (inactive)

Question: What about the GI50 [4] of the same molecule?
Answer: > 100 µM (inactive)

Question: And the GI50 [8]?
Answer: > 100 µM (inactive)

Question: What about the GI50 [5] of the same molecule?
Answer: > 100 µM (inactive)

Question: And the GI50 [6]?
Answer: > 100 µM (inactive)

Question: Which GI50 [1] does the source give for `C=C(C)C1=CCC[C@]2(C1)N=C(OC)[C@@H](C(C)C)N=C2OC` here?
Answer: > 100 µM (inactive)

Question: For `CCOc1ccc(N/C(Cl)=C(Cl)\C(=C(\Nc2ccc(OCC)cc2)n2nnc3ccccc32)[N+](=O)[O-])cc1`, which GI50 [1] is on record?
Answer: 3.85 µM (inactive)

Question: For `COC(=O)[C@H]1[C@@H](C(C)C)O[C@@H](C(C)C)O[C@H]1C(F)(F)F`, which GI50 [1] is on record?
Answer: > 100 µM (inactive)

Question: `O=C1Cc2ccccc2CCc2ccsc21` was tested. Which GI50 [2] did it give?
Answer: > 100 µM (inactive)

Question: And the GI50 [4]?
Answer: > 100 µM (inactive)

Question: And the GI50 [8]?
Answer: 70.8 µM (inactive)

Question: What about the GI50 [5] of the same molecule?
Answer: > 100 µM (inactive)

Question: And the GI50 [6]?
Answer: > 100 µM (inactive)

Question: And the GI50 [7]?
Answer: > 100 µM (inactive)

Question: Which results are given for `CC(CN(C)C)/C(=N\Nc1ccccc1)c1ccccc1` (stereo not given)?
Answer: GI50 [2]: 0.256 µM (active); GI50 [3]: 0.743 µM (active); GI50 [4]: 0.324 µM (active); GI50 [8]: 10.7 µM (inactive); GI50 [5]: 0.132 µM (active); GI50 [6]: 0.0473 µM (active)

Question: For `CC(=O)Oc1ccc2cc(Oc3ccc(Cl)cc3)c(=O)oc2c1`, which GI50 [1] is on record?
Answer: 25.9 µM (inactive)

Question: For `Cc1cccnc1N/C=C1\C(=O)NC(=O)N(C)C1=O`, which GI50 [1] is on record?
Answer: > 100 µM (inactive)

Question: For `CC(=O)O[C@H]1C#C/C=C\C#CC[C@@H]2C(=O)N[C@@H]12`, which GI50 [1] is on record?
Answer: 30.7 µM (inactive)

Question: How did the GI50 [1] turn out when `COC1OC(COC(=O)NCCCCC(=O)C(F)(F)F)C(O)C(O)C1O` (stereo not given) was run?
Answer: > 100 µM (inactive)

Question: How did the GI50 [1] turn out when `CC(=O)OCc1cncn1S(=O)(=O)c1ccc(C)cc1` was run?
Answer: > 83.4 µM (inactive)

Question: Which GI50 [1] does the source give for `Cc1cc(NS(=O)(=O)c2ccc(NC(=O)c3cccc4c(NNc5ccc(S(=O)(=O)N=C(N)N)cc5)c5ccccc5nc34)cc2)no1` here?
Answer: 57.8 µM (inactive)

Question: For `O=C(NN1C(=O)c2ccccc2C1=O)c1ccccc1Nc1ccccc1C(=O)NN1C(=O)c2ccccc2C1=O`, which GI50 [1] is on record?
Answer: > 100 µM (inactive)

Question: With `CN(C)CCNc1nc2ccccc2c2c1CCCC2` as the molecule, how does the GI50 [1] read?
Answer: 33.1 µM (inactive)

Question: What does the source list for `COc1cc2c(cc1OC)C(C(=O)O)C(c1ccccc1)N(C)C2=O` (stereo not given)?
Answer: GI50 [2]: > 100 µM (inactive); GI50 [3]: > 100 µM (inactive); GI50 [8]: > 100 µM (inactive); GI50 [5]: > 100 µM (inactive); GI50 [6]: > 100 µM (inactive); GI50 [7]: > 100 µM (inactive)

Question: Which GI50 [1] does the source give for `COc1cc(/C=C2\N=C(c3ccccc3)N(c3nc4cc(C)c(C)cc4s3)C2=O)ccc1O` here?
Answer: 46.3 µM (inactive)

Question: For `Cn1c(=O)c2nc3nnc(C#N)c(N)n3c2n(C)c1=O`, which GI50 [1] is on record?
Answer: > 100 µM (inactive)

Question: With `CCN(CC)CCCCC1CCN(CC(=O)N2CC(C)C(=O)Nc3ccccc32)CC1` (stereo not given) as the molecule, how does the GI50 [2] read?
Answer: > 100 µM (inactive)

Question: And the GI50 [3]?
Answer: > 100 µM (inactive)

Question: And the GI50 [4]?
Answer: > 100 µM (inactive)

Question: And the GI50 [8]?
Answer: > 100 µM (inactive)

Question: What about the GI50 [5] of the same molecule?
Answer: > 100 µM (inactive)

Question: What about the GI50 [6] of the same molecule?
Answer: > 100 µM (inactive)

Question: How did the GI50 [1] turn out when `CC(C)N(C(=O)c1ccc(NCc2cc(O)ccc2O)cc1)C(C)C` was run?
Answer: 11.9 µM (inactive)

Question: `Nc1cccc(/C=C/C(=O)N2CCN(CCOC(c3ccccc3)c3ccccc3)CC2)c1` was tested. Which GI50 [1] did it give?
Answer: 15 µM (inactive)

Question: With `CCOC(=O)N1N=C(/C(C)=N/OC)C(C)[S+]1[O-]` (stereo not given) as the molecule, how does the GI50 [1] read?
Answer: > 100 µM (inactive)

Question: Which GI50 [1] does the source give for `CC(=O)Nc1ccc(NC(=O)c2c(Cl)c(Cl)c(Cl)c(Cl)c2-c2nc3ccccc3[nH]2)cc1` here?
Answer: 43.1 µM (inactive)

Question: With `CC(=O)Nc1ccc2c(c1)C(=O)c1cccc(F)c1-2` as the molecule, how does the GI50 [1] read?
Answer: 4.45 µM (inactive)

Question: `O=C1C=CC(=O)C2C1Cc1ccccc1C2c1ccccc1` (stereo not given) was tested. Which GI50 [2] did it give?
Answer: 56.2 µM (inactive)

Question: And the GI50 [3]?
Answer: 22.2 µM (inactive)

Question: And the GI50 [4]?
Answer: 58.6 µM (inactive)

Question: And the GI50 [8]?
Answer: 53.6 µM (inactive)

Question: And the GI50 [5]?
Answer: 50 µM (inactive)

Question: And the GI50 [6]?
Answer: 17.3 µM (inactive)

Question: Which GI50 [1] does the source give for `CC(=O)N1c2ccccc2C2=NN(C)C(=N)SC21` (stereo not given) here?
Answer: > 100 µM (inactive)

Question: For `[O-][n+]1onc(-c2ccccc2)c1CN1CCOCC1`, which GI50 [1] is on record?
Answer: > 100 µM (inactive)

Question: With `Cc1ccc([N+]2=NC(c3ccc([N+](=O)[O-])cc3)=NN(c3ccccc3)C2)cc1` as the molecule, how does the GI50 [2] read?
Answer: 25.7 µM (inactive)

Question: What about the GI50 [3] of the same molecule?
Answer: 40.1 µM (inactive)

Question: What about the GI50 [4] of the same molecule?
Answer: 70.6 µM (inactive)

Question: And the GI50 [5]?
Answer: > 100 µM (inactive)

Question: What about the GI50 [6] of the same molecule?
Answer: 42.1 µM (inactive)

Question: What about the GI50 [7] of the same molecule?
Answer: > 100 µM (inactive)

Question: For `Cc1ccc(C2SC(=N)Nc3c2c(C)nn3C(=O)c2ccccc2O)cc1` (stereo not given), which GI50 [1] is on record?
Answer: > 10 µM (inactive)

Question: For `CCCCCCc1cc2cc(C(=O)Nc3cccc(F)c3)c(=N)oc2cc1O`, which GI50 [1] is on record?
Answer: 2.63 µM (inactive)

Question: With `CCNc1nnc(-c2ccccc2Nc2ccccc2-c2nnc(NCC)s2)s1` as the molecule, how does the GI50 [1] read?
Answer: 19.6 µM (inactive)

Question: How did the GI50 [1] turn out when `O=S(=O)(O)c1cccc2cccc(/N=N/c3c(O)ccc4ccccc34)c12` was run?
Answer: > 100 µM (inactive)

Question: Which GI50 [1] does the source give for `COC(=O)[C@]1(c2cc3ccccc3[nH]2)CC2CN(C(=O)OCc3ccccc3)C1CC2=O` (stereo not given in full) here?
Answer: 29.3 µM (inactive)

Question: `CC(=O)Nc1ccc2c(c1)C(=O)c1ccccc1-2` was tested. Which GI50 [2] did it give?
Answer: > 100 µM (inactive)

Question: What about the GI50 [3] of the same molecule?
Answer: > 100 µM (inactive)

Question: What about the GI50 [4] of the same molecule?
Answer: > 100 µM (inactive)

Question: And the GI50 [5]?
Answer: > 100 µM (inactive)

Question: What about the GI50 [6] of the same molecule?
Answer: > 100 µM (inactive)

Question: Which GI50 [1] does the source give for `Cc1cnc2nc(-c3cccc4ccccc34)cc(O)c2c1` here?
Answer: 0.0536 µM (active)

Question: With `Cc1occc1C(=S)Nc1ccc(Cl)c(/C=N/OC(C)(C)C)c1` as the molecule, how does the GI50 [1] read?
Answer: 17.6 µM (inactive)

Question: With `CC(C)(C)OC(=O)CC(NC(=O)OC(C)(C)C)C(=O)NC(Cc1ccccc1)C(N)=O` (stereo not given) (Boc-Asp(OtBu)-Phe-NH2; configuration not given here) as the molecule, how does the GI50 [1] read?
Answer: > 100 µM (inactive)

Question: `Cn1cc(NC(=O)c2cc(NC(=O)CNC(=N)N)cn2C)cc1C(=O)NCCC(=N)N` [NETROPSIN CHLORIDE] was tested. Which GI50 [1] did it give?
Answer: > 100 µM (inactive)
